{"source": "patent US20170151264A1", "about": "“COMBINATION” (Almirall, S.A., priority 2014, published 2017)", "key": {"[1]": {"test_system": "neutrophils, eosinophils and lymphocytes in bronchoalveolar fluid (BALF)", "assay": "House dust mite induced asthma model", "assay_type": "in vivo, Mouse"}, "[2]": {"test_system": "Concanavalin A induced plasma interleukin-2 (IL-2) release", "assay": "Concanavalin A induced plasma IL-2 release in rats", "assay_type": "in vivo, Wistar rats", "conditions": "for reduction in IL2 production versus vehicle-treated con A-induced rats: LAS191954 0.1 mg/kg and/or dexamethasone 0.03 mg/kg, 1 h before con A, IL2 at 90 min; for plasma levels alone versus in combination: LAS191954 0.1 mg/kg, dexamethasone 0.03 mg/kg, rat"}, "[3]": {"test_system": "neutrophils in BALF", "assay": "Cigarette smoke model", "assay_type": "in vivo, Mouse", "conditions": "LAS191954 1 mg/kg and/or dexamethasone 0.3 mg/kg"}, "[4]": {"test_system": "Anti-Dsg3 and anti-dsDNA autoantibody production", "assay": "MRL/lpr spontaneous autoimmune disease model, autoantibody production", "assay_type": "in vivo, MRL/Ipr mouse", "conditions": "for Inhibition (%) of Anti Dsg3 total IgG production (Normalized AUCw 12-19) versus Vehicle / Inhibition (%) of Anti dsDNA total IgG production (Normalized AUCw 12-19) versus Vehicle: LAS191954 3 mg/kg or prednisolone 10 mg/kg orally once a day for 6 weeks", "description": "The primary endpoint of this study was assessment of autoantibody production, including pemphigus-specific anti-Dsg3 antibodies.\nThe prednisolone dose was selected based on previous reports and corresponds to a high CS dose in humans.\nAs autoantibodies develop progressively and may follow a different course in each animal, anti-dsDNA antibody levels were measured on week 12 and used to uniformly distribute animals to dosing groups. At week 13, daily treatments were initiated and continued for 6 weeks. Antibodies to dsDNA and Dsg3 were measured at weeks 12, 15, 17 and 19. Skin lesions were inspected visually throughout the study. Effects on other parameters such as proteinuria, as well as general hematological, serological, and histological signs were evaluated at study completion."}, "[5]": {"test_system": "primary antibody responses to KLH", "assay": "Primary T cell dependent antibody response (TDAR) to KLH in mice", "assay_type": "in vivo", "description": "This assay allows a global assessment of the effect of a drug candidate on antigen presentation, helper T lymphocyte function and B lymphocyte dependent antibody production.\nIn both cases, the administration of the test compound started on the day of sensitization (day +1, KLH 2 mg/mouse, intravenously). […] A possible reason for this discrepancy is that the lymphocyte count of the concurrent vehicle group of the latter study was abnormally lower than usual, which could mask a potential effect of the test compound on this parameter."}, "[6]": {"target": "T1, PI3Kδ (Homo sapiens, UniProt O00329)", "assay": "BCR crosslinking-induced B cell CD69 expression, human whole blood", "assay_type": "cell-based", "conditions": "CD19+ cells (human whole blood), B cell CD69 surface expression"}, "[7]": {"target": "T1, PI3Kδ", "assay": "BCR crosslinking-induced CD69 expression in CD19+ B cells, isolated PBMC", "assay_type": "cell-based", "conditions": "Anti-IgD, CD69 surface expression"}, "[8]": {"test_system": "81 GPCR receptors, 8 ion channels and 5 transporters", "assay": "General selectivity panel (Cerep)", "assay_type": "binding", "conditions": "10 μM"}, "[9]": {"test_system": "secondary IgG antibody responses to KLH", "assay": "Secondary TDAR to KLH in mice", "assay_type": "in vivo", "description": "This assay included two immunizations with KLH separated 15 days apart (50 μg KLH/animal, intraperitoneally) and specific IgG anti-KLH levels were measured on day +11 after the second immunization. Administration of test compound (0.3 and 3 mg/kg) started on the day of second immunization (day +1) and then once daily for the next 9 days."}, "[10]": {"target": "PI3K p110γ (Homo sapiens, UniProt P48736)", "sequence (P48736 whole entry, canonical isoform)": "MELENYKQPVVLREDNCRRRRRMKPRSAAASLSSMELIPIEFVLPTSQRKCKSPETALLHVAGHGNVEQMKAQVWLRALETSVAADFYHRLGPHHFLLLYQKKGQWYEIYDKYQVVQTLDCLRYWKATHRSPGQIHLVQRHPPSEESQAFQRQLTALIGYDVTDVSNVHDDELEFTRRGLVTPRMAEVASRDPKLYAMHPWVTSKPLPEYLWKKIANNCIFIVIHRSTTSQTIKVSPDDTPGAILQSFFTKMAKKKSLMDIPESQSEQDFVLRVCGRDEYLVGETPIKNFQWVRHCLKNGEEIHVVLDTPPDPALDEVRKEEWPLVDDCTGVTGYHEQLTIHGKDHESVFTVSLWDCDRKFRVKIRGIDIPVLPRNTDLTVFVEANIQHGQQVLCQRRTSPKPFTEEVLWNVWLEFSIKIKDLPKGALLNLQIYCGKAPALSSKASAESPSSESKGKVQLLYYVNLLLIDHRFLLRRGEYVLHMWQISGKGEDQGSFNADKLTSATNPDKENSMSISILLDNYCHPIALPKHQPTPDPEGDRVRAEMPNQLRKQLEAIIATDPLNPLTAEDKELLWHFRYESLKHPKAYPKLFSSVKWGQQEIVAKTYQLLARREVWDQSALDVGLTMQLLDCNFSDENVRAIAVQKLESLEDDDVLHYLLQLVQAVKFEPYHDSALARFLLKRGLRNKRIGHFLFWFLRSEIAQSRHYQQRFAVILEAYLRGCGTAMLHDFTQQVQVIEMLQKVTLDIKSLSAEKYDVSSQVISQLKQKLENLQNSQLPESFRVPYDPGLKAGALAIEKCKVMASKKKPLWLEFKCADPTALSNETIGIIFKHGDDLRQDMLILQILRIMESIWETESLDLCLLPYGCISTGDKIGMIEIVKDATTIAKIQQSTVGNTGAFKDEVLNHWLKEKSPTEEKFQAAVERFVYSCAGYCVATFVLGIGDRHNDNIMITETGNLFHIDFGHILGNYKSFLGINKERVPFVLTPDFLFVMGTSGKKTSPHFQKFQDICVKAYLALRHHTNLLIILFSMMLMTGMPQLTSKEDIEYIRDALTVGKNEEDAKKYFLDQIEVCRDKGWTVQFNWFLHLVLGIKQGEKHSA", "conditions": "recombinant human isoform, pre-incubation 30 min"}, "[11]": {"test_system": "273 protein and lipid kinases", "assay": "General selectivity kinase panel (Millipore, Invitrogen and ProQinase)", "assay_type": "biochemical", "conditions": "10 μM"}, "[12]": {"target": "PI3Kβ (Homo sapiens, UniProt P42338)", "sequence (P42338 whole entry)": "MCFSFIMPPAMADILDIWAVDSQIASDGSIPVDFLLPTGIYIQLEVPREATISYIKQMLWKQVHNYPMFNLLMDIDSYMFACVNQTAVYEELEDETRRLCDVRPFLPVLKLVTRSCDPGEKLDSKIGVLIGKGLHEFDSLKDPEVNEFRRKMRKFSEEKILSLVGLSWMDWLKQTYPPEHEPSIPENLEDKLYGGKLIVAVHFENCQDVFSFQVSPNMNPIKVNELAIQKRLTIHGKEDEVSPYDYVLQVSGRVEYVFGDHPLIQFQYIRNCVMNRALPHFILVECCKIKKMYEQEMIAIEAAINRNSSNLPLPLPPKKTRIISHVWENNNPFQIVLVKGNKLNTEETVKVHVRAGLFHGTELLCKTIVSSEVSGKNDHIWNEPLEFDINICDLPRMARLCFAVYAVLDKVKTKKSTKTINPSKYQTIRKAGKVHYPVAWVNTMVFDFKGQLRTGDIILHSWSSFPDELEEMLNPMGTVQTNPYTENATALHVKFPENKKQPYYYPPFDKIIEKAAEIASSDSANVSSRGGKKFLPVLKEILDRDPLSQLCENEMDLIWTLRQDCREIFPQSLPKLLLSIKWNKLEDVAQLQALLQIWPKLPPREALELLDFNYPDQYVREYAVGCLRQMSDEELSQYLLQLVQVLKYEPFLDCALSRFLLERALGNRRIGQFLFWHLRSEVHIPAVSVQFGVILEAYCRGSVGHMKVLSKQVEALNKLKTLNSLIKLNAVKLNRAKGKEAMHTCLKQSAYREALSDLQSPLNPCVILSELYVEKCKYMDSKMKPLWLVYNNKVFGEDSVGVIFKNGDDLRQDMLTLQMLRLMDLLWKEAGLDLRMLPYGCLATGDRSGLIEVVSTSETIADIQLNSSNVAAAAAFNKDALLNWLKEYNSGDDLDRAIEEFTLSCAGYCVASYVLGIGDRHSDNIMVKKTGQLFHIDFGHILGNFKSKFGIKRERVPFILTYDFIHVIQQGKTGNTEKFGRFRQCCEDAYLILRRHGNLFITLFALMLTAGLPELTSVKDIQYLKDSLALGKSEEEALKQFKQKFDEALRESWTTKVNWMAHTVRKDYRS", "sequence (P27986 whole entry partner)": "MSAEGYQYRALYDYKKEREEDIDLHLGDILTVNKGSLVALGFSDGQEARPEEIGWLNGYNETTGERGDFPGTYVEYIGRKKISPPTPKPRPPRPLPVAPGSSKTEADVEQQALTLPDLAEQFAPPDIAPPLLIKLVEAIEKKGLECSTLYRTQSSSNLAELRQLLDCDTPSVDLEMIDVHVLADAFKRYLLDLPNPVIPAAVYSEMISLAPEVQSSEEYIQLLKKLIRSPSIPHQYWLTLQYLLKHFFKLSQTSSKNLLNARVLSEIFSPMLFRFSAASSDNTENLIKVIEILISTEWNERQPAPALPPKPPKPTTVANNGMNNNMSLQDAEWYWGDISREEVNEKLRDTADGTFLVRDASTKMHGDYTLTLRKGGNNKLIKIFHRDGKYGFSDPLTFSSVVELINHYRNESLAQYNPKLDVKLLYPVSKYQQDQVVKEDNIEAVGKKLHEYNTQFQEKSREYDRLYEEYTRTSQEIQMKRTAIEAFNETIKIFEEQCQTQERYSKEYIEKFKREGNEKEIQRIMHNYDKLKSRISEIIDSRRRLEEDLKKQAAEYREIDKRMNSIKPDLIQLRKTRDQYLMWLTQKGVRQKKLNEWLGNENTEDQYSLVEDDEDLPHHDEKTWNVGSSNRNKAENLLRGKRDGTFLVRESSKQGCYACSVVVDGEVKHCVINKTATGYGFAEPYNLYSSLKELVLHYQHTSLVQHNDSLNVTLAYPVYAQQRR", "conditions": "HUVEC, S1P stimulus, phosphorylated AKT"}, "[13]": {"target": "T1, PI3Kδ", "assay": "M-CSF-induced AKT phosphorylation in THP-1 cells", "assay_type": "cell-based", "conditions": "THP-1, M-CSF stimulus, phosphorylated AKT"}, "[14]": {"target": "T1, PI3Kδ", "assay": "Immune complex-induced ROS release in human neutrophils", "assay_type": "cell-based", "conditions": "immune complexes"}, "[15]": {"test_system": "autoantibody-mediated cutaneous lesions", "assay": "Immunization-induced mouse model of epidermolysis bullosa acquista (EBA)", "assay_type": "in vivo, B6.SJL-H2s mice", "conditions": "6 week treatment; for body weight gain: LAS191954 3 mg/kg/day or methylprednisolone 20 mg/kg/day orally", "description": "Induction of experimental EBA was performed as described in Iwata H, Bieber K, Tiburzy B et al., J Immunol. 2013; 191:2978-2988. Briefly, 6-10 week B6.SJL-H2s mice were immunized with an emulsion of a recombinant protein encompassing the vWFA2 binding domain of mouse type VII collagen (COL7) in adjuvant (Titermax). After immunization, mice were weekly evaluated for the presence and extend of clinical disease, measured as percentage of body surface affected by skin lesions (erythema, blisters, erosions and crusts).\nTreatments were carried out over a 6-week period, and mice were evaluated for the extend of clinical disease (primary endpoint) weekly. Clinical manifestations were scored 0 to 5, corresponding to 0%, <1%, ≧1% to <5%, ≧5% to <10%, ≧10% to <20% of body surface area affected, respectively. Area under Curve (AUC) was calculated from the score at inclusion, 1, 2, 3, 4, 5 and 6 weeks after allocation to treatment. For better comparability between experiments, the affected body surface area at weeks 1-6 was related to that at inclusion (set at 1).\nBody weight was monitored weekly during treatment."}, "[16]": {"test_system": "CHO cells", "conditions": "highest tested concentration of 100 μM, 24 h"}, "[17]": {"conditions": "dexamethasone 0.1-10 mg/kg and LAS191954 0.1-10 mg/kg ranges tested, dose of value not stated"}, "[18]": {"conditions": "Week 12 (beginning of treatment)"}}, "note": "pIC50: −log10 of the molar value.", "data": [{"smiles": "C[C@@H]1C[C@H]2[C@@H]3CCC4=CC(=O)C=C[C@]4(C)[C@@]3(F)[C@@H](O)C[C@]2(C)[C@@]1(O)C(=O)CO", "note": "[Dexamethasone, dexamethasone, reference compound]", "values": [{"measurement": "reduction in eosinophils in BALF", "setting": "[1]; [17]", "value": 58, "unit": "%"}, {"measurement": "reduction in lymphocytes in BALF", "setting": "[1]; [17]", "value": 64, "unit": "%"}, {"measurement": "reduction in neutrophils in BALF", "setting": "[1]; [17]", "value": "only = 53%,"}, {"measurement": "reduction in IL2 production versus vehicle-treated con A-induced rats", "setting": "[2]", "value": "only = 42%"}, {"measurement": "reduction in IL2 production versus vehicle-treated con A-induced rats", "setting": "[2]; listed as dexamethasone", "value": 42, "unit": "%"}, {"measurement": "plasma levels alone versus in combination", "setting": "[2]", "value": "same levels"}, {"measurement": "reduction in neutrophils in BALF", "setting": "[3]", "value": "only = 11%"}]}, {"smiles": "C[C@H](Nc1ncnc(N)c1C#N)c1nn2ccc(C#N)c2c(=O)n1-c1ccccc1", "note": "[LAS191954, (S)-2-(1-(6-amino-5-cyanopyrimidin-4-ylamino)ethyl)-4-oxo-3-phenyl-3,4-dihydropyrrolo[1,2-f][1,2,4]triazine-5-carbonitrile]", "values": [{"measurement": "effect on eosinophils in BALF (in words)", "setting": "[1]; LAS191954 only", "value": "only = Modest"}, {"measurement": "effect on lymphocytes in BALF (in words)", "setting": "[1]; LAS191954 only", "value": "only = Modest"}, {"measurement": "effect on neutrophils in BALF (in words)", "setting": "[1]; LAS191954 only", "value": "increase in"}, {"measurement": "ID50", "setting": "[4]; Anti-Dsg3 and anti-dsDNA autoantibody production, repeated administration", "value": "<3", "unit": "mg/kg"}, {"measurement": "Absolute Anti-Dsg3 IgG levels (Mean ± SEM)", "setting": "[4]; [18]", "value": "687 ± 252", "unit": "U/ml"}, {"measurement": "Absolute Anti-dsDNA IgG levels (Mean ± SEM)", "setting": "[4]; [18]", "value": "370.152 ± 52.401", "unit": "U/ml"}, {"measurement": "Absolute Anti-Dsg3 IgG levels (Mean ± SEM)", "setting": "[4]; Week 19 (end of treatment)", "value": "450 ± 201", "unit": "U/ml"}, {"measurement": "Absolute Anti-dsDNA IgG levels (Mean ± SEM)", "setting": "[4]; Week 19 (end of treatment)", "value": "333.806 ± 106.959", "unit": "U/ml"}, {"measurement": "mean decrease in anti-Dsg3 antibody levels below those at the beginning of treatment", "setting": "[4]; week 19 versus week 12, FIG. 3", "value": 40, "unit": "%"}, {"measurement": "reduction of anti-dsDNA antibody titers at the end of treatment", "setting": "[4]; week 19 versus week 12, FIG. 3", "value": 10, "unit": "%"}, {"measurement": "plasma levels alone versus in combination", "setting": "[2]", "value": "same levels"}, {"measurement": "ID50", "setting": "[2]; single administration, rats", "value": 0.13, "unit": "mg/kg"}, {"measurement": "ID50", "setting": "[5]; primary IgG anti-KLH, day +15, 14-day dosing", "value": 0.17, "unit": "mg/kg"}, {"measurement": "lymphocyte count", "setting": "[5]; primary IgG study, 14-day dosing", "value": "no apparent effect"}, {"measurement": "ID50", "setting": "[5]; primary IgM anti-KLH, day +5, repeated daily administration", "value": 0.12, "unit": "mg/kg"}, {"measurement": "WBC counts", "setting": "[5]; primary IgM study, 4 days daily treatment", "value": "lower WBC counts"}, {"measurement": "general health status of the animals", "setting": "[5]; primary TDAR, 0.03-10 mg/kg daily", "value": "without apparent effects"}, {"measurement": "pIC50", "setting": "[6]; Anti-IgD", "value": 7.33}, {"measurement": "pIC50", "setting": "[6]; Anti-IgM", "value": 7.47}, {"measurement": "pIC50", "setting": "[7]", "value": 8.34}, {"measurement": "inhibition at single concentration", "setting": "[8]", "value": "No inhibition"}, {"measurement": "lymphocyte counts", "setting": "[9]; 0.3 and 3 mg/kg once daily", "value": "reduced lymphocyte counts"}, {"measurement": "ID50", "setting": "[9]; secondary IgG anti-KLH, day +11 after second immunization, repeated administration", "value": "< 0.3", "unit": "mg/kg"}, {"measurement": "pIC50", "setting": "[10]", "value": 7.14}, {"measurement": "inhibition at single concentration", "setting": "[11]", "value": "No inhibition"}, {"measurement": "pIC50", "setting": "[12]", "value": 6.53}, {"measurement": "pIC50", "setting": "[13]", "value": 8.11}, {"measurement": "pIC50", "setting": "[14]", "value": 7.96}, {"measurement": "reduction in neutrophils in BALF", "setting": "[3]", "value": "only = 49%"}, {"measurement": "overall disease activity, AUC of accumulative clinical score versus vehicle", "setting": "[15]; LAS191954 3 mg/kg/day orally", "value": "significant reduction"}, {"measurement": "body weight gain", "setting": "[15]", "value": "not altered"}, {"measurement": "maximum cell death", "setting": "[16]", "value": 27, "unit": "%"}]}, {"smiles": "C[C@H]1C[C@@H]2[C@H]([C@@H](O)C[C@@]3(C)[C@H]2CC[C@]3(O)C(=O)CO)[C@@]2(C)C=CC(=O)C=C12", "note": "[Methylprednisolone, reference compound]", "values": [{"measurement": "body weight gain", "setting": "[15]", "value": "diminished the body weight gain"}]}, {"smiles": "C[C@]12C=CC(=O)C=C1CC[C@@H]1[C@@H]2[C@@H](O)C[C@@]2(C)[C@H]1CC[C@]2(O)C(=O)CO", "note": "[Prednisolone, prednisolone]", "values": [{"measurement": "Inhibition (%) of Anti Dsg3 total IgG production (Normalized AUCw 12-19) versus Vehicle", "setting": "[4]", "value": "49.5 ± 10", "unit": "%"}, {"measurement": "Inhibition (%) of Anti dsDNA total IgG production (Normalized AUCw 12-19) versus Vehicle", "setting": "[4]", "value": "46.9 ± 10.9", "unit": "%"}, {"measurement": "Inhibition (%) of Anti Dsg3 total IgG production (Normalized AUCw 12-19) versus Vehicle", "setting": "[4]; listed as prednisolone", "value": 49.5, "unit": "%"}, {"measurement": "Inhibition (%) of Anti dsDNA total IgG production (Normalized AUCw 12-19) versus Vehicle", "setting": "[4]; listed as prednisolone", "value": 47, "unit": "%"}, {"measurement": "Absolute Anti-Dsg3 IgG levels (Mean ± SEM)", "setting": "[4]; [18]", "value": "501 ± 188", "unit": "U/ml"}, {"measurement": "Absolute Anti-dsDNA IgG levels (Mean ± SEM)", "setting": "[4]; [18]", "value": "372.796 ± 56.638", "unit": "U/ml"}, {"measurement": "Absolute Anti-Dsg3 IgG levels (Mean ± SEM)", "setting": "[4]; Week 19 (end of treatment)", "value": "242 ± 101", "unit": "U/ml"}, {"measurement": "Absolute Anti-dsDNA IgG levels (Mean ± SEM)", "setting": "[4]; Week 19 (end of treatment)", "value": "933.755 ± 343.424", "unit": "U/ml"}, {"measurement": "change of anti-dsDNA antibody levels at the end of treatment (in words)", "setting": "[4]; week 19 versus week 12, FIG. 3", "value": "doubled"}, {"measurement": "mean decrease in anti-Dsg3 antibody levels below those at the beginning of treatment", "setting": "[4]; week 19 versus week 12, FIG. 3", "value": 20, "unit": "%"}]}]}
